In general, Ki refers to a measure of affinity in units of concentration, obtained from inhibition or displacement. A higher Ki goes with a looser hold on the target.

Where “and” joins values, the source holds several entries; their conditions need not be identical. Equal values may be shown once.

This is an account of results in patent US20080318943A1, “Compounds and Uses Thereof - 848” (ASTRAZENECA AB, priority 2007, published 2008).

T1 sequence (P47869 29-451): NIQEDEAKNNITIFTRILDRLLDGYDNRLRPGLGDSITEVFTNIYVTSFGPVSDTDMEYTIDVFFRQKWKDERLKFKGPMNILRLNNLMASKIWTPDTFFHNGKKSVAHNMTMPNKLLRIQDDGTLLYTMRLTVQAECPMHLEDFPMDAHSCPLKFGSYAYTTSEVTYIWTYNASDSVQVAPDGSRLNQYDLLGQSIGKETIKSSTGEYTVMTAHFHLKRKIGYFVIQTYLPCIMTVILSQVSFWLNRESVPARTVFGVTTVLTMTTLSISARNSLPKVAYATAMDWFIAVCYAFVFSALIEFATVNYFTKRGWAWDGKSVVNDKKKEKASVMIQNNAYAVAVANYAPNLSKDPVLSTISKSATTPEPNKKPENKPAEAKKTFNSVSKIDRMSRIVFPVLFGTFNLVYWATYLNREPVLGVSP
T1 sequence (P28472 26-473 partner): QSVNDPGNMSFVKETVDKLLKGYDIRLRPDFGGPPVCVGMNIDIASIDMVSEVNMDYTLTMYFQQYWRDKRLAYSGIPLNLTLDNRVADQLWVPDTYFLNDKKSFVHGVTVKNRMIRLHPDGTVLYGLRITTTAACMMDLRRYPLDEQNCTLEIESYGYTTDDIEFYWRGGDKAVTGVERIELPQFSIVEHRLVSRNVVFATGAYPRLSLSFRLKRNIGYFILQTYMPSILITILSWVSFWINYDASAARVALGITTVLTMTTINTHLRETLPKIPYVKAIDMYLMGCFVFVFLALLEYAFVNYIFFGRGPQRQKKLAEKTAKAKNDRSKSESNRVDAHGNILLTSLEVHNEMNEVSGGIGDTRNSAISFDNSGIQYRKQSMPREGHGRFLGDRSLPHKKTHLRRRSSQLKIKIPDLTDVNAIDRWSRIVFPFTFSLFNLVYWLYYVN
T1 sequence (P18507 40-475): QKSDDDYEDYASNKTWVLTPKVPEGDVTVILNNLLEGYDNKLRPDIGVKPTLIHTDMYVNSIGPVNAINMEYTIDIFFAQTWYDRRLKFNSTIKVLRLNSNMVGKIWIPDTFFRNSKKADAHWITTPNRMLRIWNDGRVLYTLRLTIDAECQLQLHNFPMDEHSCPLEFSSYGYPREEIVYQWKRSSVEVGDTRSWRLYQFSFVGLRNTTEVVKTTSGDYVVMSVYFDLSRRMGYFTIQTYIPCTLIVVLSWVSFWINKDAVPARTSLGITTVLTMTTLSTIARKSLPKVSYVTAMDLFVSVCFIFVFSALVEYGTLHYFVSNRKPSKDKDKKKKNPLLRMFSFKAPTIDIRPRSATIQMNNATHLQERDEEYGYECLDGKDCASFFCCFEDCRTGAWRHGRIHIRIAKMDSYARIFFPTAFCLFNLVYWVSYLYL

The experiment addresses T1, GABAA2 receptors (α2, β3, γ2 receptor subunits transfected into Sf9 cells) (Homo sapiens, UniProt P18507+P47869).
T1 construct: host or cells: Sf9 cells (membranes)
Description: GABAA2 Binding Method ([3H]-Flunitrazepam displacement). As to conditions: [3H]-Flunitrazepam ~2 nM, α2β3γ2 Sf9 membranes, 1 hr at 4° C. The method, then: In some embodiments, the binding test is directed to a subtype of GABAA receptors, such as GABAA1 receptors (i.e., those containing the α1 subunit), GABAA2 receptors (i.e., those containing the α2 subunit), GABAA3 receptors (i.e., those containing the α3 subunit) and GABAA5 receptors (i.e., those containing the α5 subunit).
[^3H]-Flunitrazepam (Cat #NET567): Prepare 10× stock=20 nM, [F} in assay=˜2 nM
1. […] Add 5 ul of 30 uM flumazenil to wells 12 D-E for 50% control wells.
5. Add 25 μl [^3H]-Flunitrazepam (Automation Program 6). Incubate for 1 hr at 4° C.
6. Collect membranes on a cell harvester onto GF/B filter plates (pre-wet with dH2O and wash 5×400 μl/well, with cold assay buffer. (First 3 washes are considered hot; last two are cold.)
Data is analyzed by calculating percent of control, IC50, and Ki in an XLfit template. The following formula is used in the templates: […]
For the molecule `CCN1Cc2nc3c(-c4cc(OC)cc(OC)c4)cccc3c(N)c2C1=O` [9-amino-5-(3,5-dimethoxyphenyl)-2-ethyl-2,3-dihydro-1H-pyrrolo[3,4-b]quinolin-1-one], the inhibitory constant (Ki) was found to be 27.2 nM. In other words, the double-digit nanomolar range.

As for `COc1cc(OC)cc(-c2cccc3c(N)c4c(nc23)CN(C)C4=O)c1` [9-amino-5-(3,5-dimethoxyphenyl)-2-methyl-2,3-dihydro-1H-pyrrolo[3,4-b]quinolin-1-one], the affinity, expressed as Ki, was 74.1 nM.

In turn, `Cc1cc(C)cc(-c2cccc3c(N)c4c(nc23)CN(C)C4=O)c1` [9-amino-5-(3,5-dimethylphenyl)-2-methyl-2,3-dihydro-1H-pyrrolo[3,4-b]quinolin-1-one] yielded a Ki of 65.5 nM.

`CCCN1Cc2nc3c(-c4cccc(Cl)c4)cccc3c(N)c2C1=O` [9-amino-5-(3-chlorophenyl)-2-propyl-2,3-dihydro-1H-pyrrolo[3,4-b]quinolin-1-one] displayed an inhibition constant Ki of 76.5 nM.

`CCCN1Cc2nc3c(-c4cccc(F)c4OC)cccc3c(N)c2C1=O` [9-amino-5-(3-fluoro-2-methoxyphenyl)-2-propyl-2,3-dihydro-1H-pyrrolo[3,4-b]quinolin-1-one] yielded a Ki of 57 nM.

For `COc1cc(F)cc(-c2cccc3c(N)c4c(nc23)CN(C)C4=O)c1` [9-amino-5-(3-fluoro-5-methoxyphenyl)-2-methyl-2,3-dihydro-1H-pyrrolo[3,4-b]quinolin-1-one], the affinity, expressed as Ki, was 80.4 nM.

As to `CCCN1Cc2nc3c(-c4ccc(F)cc4)cccc3c(N)c2C1=O` [9-amino-5-(4-fluorophenyl)-2-propyl-2,3-dihydro-1H-pyrrolo[3,4-b]quinolin-1-one], affinity was put at a Ki of 78.3 nM.

The molecule `CCCN1Cc2nc3c(-c4cnc(OC)c(F)c4)cccc3c(N)c2C1=O` [9-amino-5-(5-fluoro-6-methoxypyridin-3-yl)-2-propyl-2,3-dihydro-1H-pyrrolo[3,4-b]quinolin-1-one] came in with a Ki of 81.1 nM. The Ki values of the last two molecules are within 1.5-fold of each other.

For the molecule `CCCN1Cc2nc3c(-c4cnc(Cl)c(C)c4)cccc3c(N)c2C1=O` [9-amino-5-(6-chloro-5-methylpyridin-3-yl)-2-propyl-2,3-dihydro-1H-pyrrolo[3,4-b]quinolin-1-one], the Ki is 85.7 nM. This Ki and that of the molecule before are within 1.5-fold of each other.

`COc1cccc(F)c1-c1cccc2c(N)c3c(nc12)CN(C1CC1)C3=O` [Example 16, 9-Amino-2-cyclopropyl-5-(2-fluoro-6-methoxyphenyl)-2,3-dihydropyrrolo[3,4-b]quinolin-1-one]: the Ki was 3.63 nM and 6.36 nM.

In turn, `COc1ccc(-c2c(F)ccc3c(N)c4c(nc23)CN(C2CC2)C4=O)c(OC)c1` [Example 28, 9-Amino-2-cyclopropyl-5-(2,4-dimethoxyphenyl)-6-fluoro-2,3-dihydropyrrolo[3,4-b]quinolin-1-one] gave a Ki of 8.33 nM.

For `CCN1Cc2nc3c(-c4cnc(OC)nc4OC)c(F)ccc3c(N)c2C1=O` [Example 34, 9-Amino-5-(2,4-dimethoxypyrimidin-5-yl)-2-ethyl-6-fluoro-2,3-dihydropyrrolo[3,4-b]quinolin-1-one], the Ki was 16.7 nM. Against the preceding molecule, the Ki is about 2-fold higher.

Turning to `CCN1Cc2nc3c(-c4cnccc4OC)c(F)ccc3c(N)c2C1=O` [Example 36, 9-Amino-2-ethyl-6-fluoro-5-(4-methoxypyridin-3-yl)-2,3-dihydropyrrolo[3,4-b]quinolin-1-one], the Ki turned out to be 2.43 nM.

Regarding `COc1ccc(-c2c(F)ccc3c(N)c4c(nc23)CN(C2CCC2)C4=O)c(OC)n1` [Example 52, 9-Amino-2-cyclobutyl-5-(2,6-dimethoxypyridin-3-yl)-6-fluoro-2,3-dihydropyrrolo[3,4-b]quinolin-1-one], the Ki is 0.774 nM.

In turn, `COc1ccc(-c2c(F)ccc3c(N)c4c(nc23)CN(C2CC2)C4=O)c(OC)n1` [Example 54, 9-Amino-2-cyclopropyl-5-(2,6-dimethoxypyridin-3-yl)-6-fluoro-2,3-dihydropyrrolo[3,4-b]quinolin-1-one] came in with a Ki of 14.5 nM.

The molecule `CCCN1Cc2nc3c(-c4c(F)cccc4OC)c(F)ccc3c(N)c2C1=O` [Example 55, 9-Amino-6-fluoro-5-(2-fluoro-6-methoxyphenyl)-2-propyl-2,3-dihydropyrrolo[3,4-b]quinolin-1-one] displayed a Ki of 3.49 nM.
